From ChEMBL document CHEMBL1157539, “Thousands of chemical starting points for antimalarial lead identification” (Nature, 2010)

Test system: Plasmodium falciparum
Experiment: GSK_TCMDC: Inhibition of Plasmodium falciparum 3D7 in whole erythrocytes, using parasite LDH activity as an index of growth.
Assay type: functional, organism-based
Settings: Plasmodium falciparum, 3D7

Row | Compound | XC50
1 | CCNc1c2ccc(Cl)cc2nc2ccc(OC)cc12 | 843 nM
2 | COc1ccc(F)cc1-c1ccc(C(=O)N2CCCN(c3ccc(C(F)(F)F)cn3)CC2)cc1 | 157 nM
3 | O=C(NCc1ccc(C(=O)NC2CCCCCC2)cc1)c1ccc(O)c(-c2ccc(Cl)c(Cl)c2)c1 | 1060 nM
4 | O=C(N[C@@H](CC1CCCCC1)C(=O)NC1CC1)c1ccc(O)c(-c2cccc(C(F)(F)F)c2)c1 | 773 nM
5 | O=C(Nc1ccc(OC(F)(F)F)cc1)NC1CCN(c2ccnc3ccccc23)C1 (stereo not drawn) | 244 nM
6 | CCS(=O)(=O)c1ccc(OC)c(Nc2nccc(-c3c(-c4cccc(NC(=O)c5c(F)cccc5F)c4)nn4ncccc34)n2)c1 | 1030 nM
7 | Cc1cc(C(=O)CN2C(=O)NC3(CCOc4ccccc43)C2=O)c(C)n1Cc1ccco1 (stereo not drawn) | 605 nM
8 | CC(=O)Nc1ccc(OCCN(CC(C)C)c2ccc(C(F)(F)F)c(C#N)c2)c(Cl)c1 | 308 nM
9 | CC(=O)Nc1ccccc1OCc1cc2cc(C(=O)N3CCC(N4C(=O)OCc5ccccc54)CC3)ccc2o1 | 236 nM
10 | CN1CCN(c2nsc3ccc(-c4ccc(OCCN5CCCC5)cc4)cc23)CC1 | 826 nM
11 | CCN1CCN(Cc2c(O)ccc3c(=O)c(Oc4cc(C)cc(C)c4)c(C(F)(F)F)oc23)CC1 | 773 nM
12 | CC(Oc1ccc(Cl)cc1)C(=O)N(C)C1CCN(CCCCCNC(=O)/C=C/c2ccc(Cl)c(Cl)c2)CC1 (stereo not drawn) | 959 nM
13 | COc1cc(C(=O)N2CCC(CCN3CCC4(CC3)CN(S(C)(=O)=O)c3ccccc34)CC2Cc2ccc(Cl)c(Cl)c2)cc(OC)c1OC (stereo not drawn) | 843 nM
14 | Cc1cccc2nc(-c3cccc(-c4cccc(NC(=O)c5cn(C)c(=O)n5C)c4)c3)[nH]c12 | 505 nM
15 | COCc1ccccc1C(=O)NCCOc1cc(C)cc(C)c1 | 353 nM
16 | CCN1CCC(N(Cc2ccc(-c3ccc(C(F)(F)F)cc3)cc2)C(=O)Cn2c(SCc3cccc(F)c3F)cc(=O)c3ccccc32)C1 (stereo not drawn) | 882 nM
17 | CCCC(C)Nc1nc(C)cc(N[C@@H](CC(C)C)C(=O)NCCOc2ccccc2)n1 (stereo partly drawn) | 1710 nM
18 | COc1ccc(CNc2ccc3nc(N)nc(N)c3c2)cc1 | 172 nM
19 | CC(=O)C1(c2ccccc2)CCN(CCC2(c3ccc(Cl)c(Cl)c3)CN(C(=O)Nc3cc(F)cc(F)c3)CCO2)CC1 (stereo not drawn) | 1480 nM

Row | Compound | XC50
20 | Cc1ccc(/C=C/C(=O)N2CCC(CCN3CCC(c4c[nH]c5ccccc45)CC3)CC2)cc1C | 926 nM
21 | O=C(Cc1ccc(-c2ccccc2)cc1)N[C@H]1CCN(Cc2ccc(OCCCN3CCCCC3)cc2)C1 | 772 nM
22 | CN(C(=O)c1ccc(Br)cc1)c1ccccc1[N+](=O)[O-] | 926 nM
23 | CN(C)CCNCc1nc(-c2ccc3c(Nc4ccc(Oc5ccccc5)cc4)ccnc3c2)cs1 | 736 nM
24 | Cc1ccc(CN2CCCN(Cc3cccc(NC(=O)c4cc5ccccc5s4)c3)CC2)cc1 | 1190 nM
25 | COc1cccc(C(=O)N2CCOC(CCN3CCC(c4ccccc4)CC3)(c3ccc(Cl)c(Cl)c3)C2)c1 (stereo not drawn) | 505 nM
26 | Cn1cc(CN2CCC(OC(c3ccccc3)c3ccc(Cl)cc3)CC2)cn1 (stereo not drawn) | 839 nM
27 | Cc1cc(-c2ccc(S(=O)(=O)Nc3cc4c(cc3OC(C)C)CCN(C)CC4)cc2)ccc1Cl | 904 nM
28 | Cc1cccc2nc(-c3ccc(-c4ccc(CNCCCNS(C)(=O)=O)cc4)s3)[nH]c12 | 999 nM
29 | Cc1cc(N2CCCC2)nc(Nc2ccc(NC(=O)c3ccccc3C)cc2)n1 | 724 nM
30 | O=S(=O)(Nc1cc2c(cc1O)CCN(C1CCC1)CC2)c1ccc(-c2ccc(F)cc2)cc1 | 417 nM
31 | c1ccc(CN2CCC(NCc3ccc(-c4ccc(CNCc5cccnc5)cn4)cc3)CC2)cc1 | 879 nM
32 | c1ccc(-c2nc(NCCCn3ccnc3)cc(-c3ccncc3)n2)cc1 | 167 nM
33 | Cc1cc2ccc(CNCCc3ccccc3Br)cc2nc1N | 514 nM
34 | CCOC(=O)c1c(NC(=O)c2ccccc2)sc2c(O)c(CN(CC)CC)ccc12 | 969 nM
35 | Cc1ccccc1CNC(=O)Nc1cccc(-c2csc(NC(=N)N)n2)c1 | 700 nM
36 | CN1CCN(c2ccnc3ccc(NC(=O)Nc4ccc(Cl)cc4)cc23)CC1 | 112 nM
37 | CC(C)NCc1cccc(-c2ccc(NC(=O)c3ccc(C#N)cc3)cc2)c1 | 825 nM
38 | COc1ccc(Cc2c(C)nc3nc(N)nc(N)c3c2C)cc1 | 284 nM
